From patent EP1621546B1, “Peptide ligands specific to immonoglobulins” (Tecnogen S.p.A., priority 2004, dated 2008)

Assays:
[1] = system: immunoglobulins (IgG, IgE, IgM and IgA) present in human serum; assay: Separation and purification of immunoglobulins from raw human serum by affinity chromatography on the resin-immobilized compound (gel electrophoresis and Western blotting of fractions); type: binding; settings: compound immobilized on Ultralink Biosupport Medium
Description: (§1) Compound IB (5 mg) prepared according to the preceding Example 1 was dissolved in 5.0 ml of 0.2 M NaHCO3, 0.6 M Na citrate, pH 9.0, and incubated with 130 mg (1 mL) of resin Ultralink Biosupport Medium™ (PIERCE, Rockford, IL, USA), a support for affinity chromatography pre-activated with a function of the azalactone type for direct coupling of peptides and proteins. The suspension was stirred for 12 hours at room temperature and the extent of coupling was monitored by taking samples of the reaction mixture at various times and then analysing by RP-HPLC.
(§2) After 12 hours, approx. 90-95% of the initial peptide had been immobilized covalently on the resin. The derivatized resin was incubated with 0.1 M TRIS, pH 8.5 to block any sites of the resin that are still reactive, and then packed in a glass column 100 x 0.6 mm ID with variable plunger (OMNIFIT™, Cat. No. 006CC-06-10-FF).
To evaluate the capability of Compound I(B) immobilized on resin according to Example 2 to separate and purify immunoglobulins, the column was equilibrated with buffer 25 mM Bis-Tris (Bis(2-hydroxyethyl)amino-tris(hydroxymethyl)methane, Sigma-Aldrich™, Cat. No. B7535), pH 6.5, at a flow rate of 1 mL/min, monitoring the eluent at 280 nm.
Raw human serum (Sigma-Aldrich™, Cat. No. R9133) was filtered, diluted 1:1 (v/v) with the binding buffer, loaded on the column and, after elution of the unbound material, the eluent was changed to acetic acid (AcH, Sigma-Aldrich™, Cat. No. 46928) 0.1 M, pH 3.0, for eluting the adsorbed material.
The material eluted from the column was neutralized with TRIS 1 M, pH 9.0 and characterized by analysis by polyacrylamide gel electrophoresis and Western blotting (WB) on nitrocellulose for identifying the immunoglobulins retained.

[2] = system: IgG, IgE, IgM and IgA immunoglobulins; assay: Separation and purification of immunoglobulins from raw murine serum by affinity chromatography on the resin-immobilized compound; type: binding; settings: compound immobilized on Ultralink Biosupport Medium
Description: as §1, §2
To evaluate the capability of Compound I(B) immobilized on resin according to Example 2 to separate and purify immunoglobulins, the column was equilibrated with buffer 25 mM Bis-Tris (Bis(2-hydroxyethyl)amino-tris(hydroxymethyl)methane, Sigma-Aldrich™, Cat. No. B7535), pH 6.5, at a flow rate of 1 mL/min, monitoring the eluent at 280 nm. […]

Substance: (NH2-L-Cys-L-Tyr-L-His-L-His)2-L-Lys-L-Gly-OH [Compound I(B)]
- retention of the immunoglobulin fraction of the raw serum (electrophoretic analysis) ([1]; raw human serum diluted 1:1, binding buffer 25 mM Bis-Tris pH 6.5, elution with acetic acid 0.1 M pH 3.0): able to retain the immunoglobulin fraction of the raw serum
- classes of immunoglobulins retained (WB analysis of the retained material) ([1]; raw human serum, Western blotting on nitrocellulose): retained all the classes of immunoglobulins (IgG, IgE, IgM and IgA)
- albumin (selectivity of the column) ([1]; raw human serum, electrophoretic analysis): recovered in the unretained material
- albumin (selectivity of the column) [2]: recovered in the unretained material
- immunoglobulins retained by the column [2]: able to retain the IgG, IgE, IgM and IgA immunoglobulins
